Like-named read-outs stand apart in the source and are kept apart here.
Tests used:
[1] = molecular target: T1, human recombinant adrenergic α2B receptor (Homo sapiens, UniProt P18089); test: Adrenergic α2B radioligand binding ([3H]Rauwolscine); details: read-out: Adrenergic (1 μM) α2B, percent inhibition of specific binding
T1 construct: expressed in transfected cells; host or cells: CHO-K1 cells
T1 sequence (P18089 1-450): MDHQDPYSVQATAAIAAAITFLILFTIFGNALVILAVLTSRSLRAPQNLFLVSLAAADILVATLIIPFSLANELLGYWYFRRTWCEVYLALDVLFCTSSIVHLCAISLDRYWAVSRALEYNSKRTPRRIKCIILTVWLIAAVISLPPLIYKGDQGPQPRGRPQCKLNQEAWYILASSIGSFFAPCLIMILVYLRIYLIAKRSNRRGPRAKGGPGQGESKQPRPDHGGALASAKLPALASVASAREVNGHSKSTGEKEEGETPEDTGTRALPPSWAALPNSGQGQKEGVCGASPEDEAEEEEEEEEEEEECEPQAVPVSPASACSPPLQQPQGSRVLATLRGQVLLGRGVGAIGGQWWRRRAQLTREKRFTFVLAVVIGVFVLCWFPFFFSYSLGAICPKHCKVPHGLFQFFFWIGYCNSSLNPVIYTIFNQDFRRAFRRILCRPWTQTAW
Procedure: To evaluate in radioligand binding assays the activity of compounds of the invention, human recombinant adrenergic α2B receptor expressed in Chinese hamster ovary (CHO-K1) cells (Uhlen S et al. Eur. J. Pharmacol. 343(1):93, 1998) in a modified Tris-HCl buffer (50 mM Tris-HCl, pH 7.4, 12.5 mM MgCl2, 1 mM EDTA, 0.2% BSA) was used. Compounds of the invention were incubated with 2.5 nM [3H]Rauwolscine for 60 minutes at 25° C. Non-specific binding was estimated in the presence of 10 μM Prozosin. Receptor proteins were filtered and washed, the filters were then counted to determine [^3H]Rauwolscine specifically bound. Compounds were screened at 1 μM or lower, using 1% DMSO as vehicle. Biochemical assay results are presented as the percent inhibition of specific binding in Table 6.

[2] = molecular target: T2, human recombinant serotonin (5-Hydroxytryptamine) 5-HT2C receptor (Homo sapiens, UniProt P28335); test: Serotonin 5-HT2C radioligand binding ([3H]Mesulergine); details: read-out: Serotonin (1 μM) 5-HT2C, percent inhibition of specific binding
T2 construct: expressed in transfected cells; host or cells: CHO-K1 cells
T2 sequence (P28335 33-458): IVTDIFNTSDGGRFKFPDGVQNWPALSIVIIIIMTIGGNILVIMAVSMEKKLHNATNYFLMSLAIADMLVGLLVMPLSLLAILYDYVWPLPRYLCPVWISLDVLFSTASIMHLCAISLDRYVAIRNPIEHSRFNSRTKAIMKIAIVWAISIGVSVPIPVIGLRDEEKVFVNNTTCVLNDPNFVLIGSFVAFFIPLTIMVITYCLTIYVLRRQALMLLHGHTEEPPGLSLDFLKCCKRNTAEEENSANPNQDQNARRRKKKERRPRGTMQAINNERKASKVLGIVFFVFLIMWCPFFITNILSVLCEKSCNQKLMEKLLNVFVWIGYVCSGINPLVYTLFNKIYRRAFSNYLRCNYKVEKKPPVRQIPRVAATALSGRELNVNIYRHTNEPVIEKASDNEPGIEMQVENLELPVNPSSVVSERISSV
Procedure: To evaluate in radioligand binding assays the activity of compounds of the invention, human recombinant serotonin (5-Hydroxytryptamine) 5-HT2C receptor expressed in Chinese hamster ovary (CHO-K1) cells (Wolf, W. A. and Schutz, J. S., J. Neurochem. 69:1449, 1997) in a modified Tris-HCl buffer (50 mM Tris-HCl, pH 7.4, 0.1% Ascorbic Acid, 10 μM Pargyline) was used. Compounds of the invention were incubated with 1 nM [^3H]Mesulergine for 60 minutes at 25° C. Non-specific binding was estimated in the presence of 1 μM Mianserin. Receptor proteins were filtered and washed, the filters were then counted to determine [^3H]Mesulergine specifically bound. Compounds were screened at 1 μM or lower, using 1% DMSO as vehicle. Biochemical assay results are presented as the percent inhibition of specific binding in Table 7.

[3] = molecular target: T3, human recombinant histamine H1 receptor (Homo sapiens, UniProt P35367); test: Histamine H1 radioligand binding ([3H]Pyrilamine); details: read-out: Histamine Binding (1 μM) H1, percent inhibition of specific binding
T3 construct: expressed in transfected cells; host or cells: CHO cells
Procedure: To evaluate in radioligand binding assays the activity of compounds of the invention, human recombinant histamine H1 receptor expressed in Chinese hamster ovary (CHO) cells (De Backer, M. D. et al., Biochem. Biophys. Res. Comm. 197(3):1601, 1993) in a modified Tris-HCl buffer (50 mM Tris-HCl, pH 7.4, 2 mM MgCl2, 100 mM NaCl, 250 mM Sucrose) was used. Compounds of the invention were incubated with 1.2 nM [^3H]Pyrilamine for 180 minutes at 25° C. Non-specific binding was estimated in the presence of 1 μM pyrilamine. Receptor proteins were filtered and washed, the filters were then counted to determine [^3H]Pyrilamine specifically bound. Compounds were screened at 1 μM, using 1% DMSO as vehicle. Biochemical assay results are presented as the percent inhibition of specific binding in Table 5.

[4] = molecular target: T4, human recombinant dopamine D2L receptor (Homo sapiens, UniProt P14416); test: Dopamine D2L radioligand binding ([3H]Spiperone); details: read-out: Dopamine (1 μM) D2L, percent inhibition of specific binding
T4 construct: expressed in transfected cells; host or cells: CHO cells
Procedure: To evaluate in radioligand binding assays the activity of compounds of the invention, human recombinant dopamine D2L receptor expressed in Chinese hamster ovary (CHO) cells (Grandy, D. K. et al. Proc. Natl. Acad. Sci. USA. 86:9762, 1989; Hayes, G. et al., Mol. Endocrinol. 6:920, 1992) in a modified Tris-HCl buffer (50 mM Tris-HCl, pH 7.4, 1.4 mM Ascorbic Acid, 0.001% BSA, 150 mM NaCl) was used. Compounds of the invention were incubated with 0.16 nM [^3H]Spiperone for 120 minutes at 25° C. Non-specific binding was estimated in the presence of 10 μM Haloperidol. Receptor proteins were filtered and washed, the filters were then counted to determine [^3H]Spiperone specifically bound. Compounds were screened at 1 μM or lower, using 1% DMSO as vehicle. Biochemical assay results are presented as the percent inhibition of specific binding in Table 6.

T3 sequence (P35367 whole entry): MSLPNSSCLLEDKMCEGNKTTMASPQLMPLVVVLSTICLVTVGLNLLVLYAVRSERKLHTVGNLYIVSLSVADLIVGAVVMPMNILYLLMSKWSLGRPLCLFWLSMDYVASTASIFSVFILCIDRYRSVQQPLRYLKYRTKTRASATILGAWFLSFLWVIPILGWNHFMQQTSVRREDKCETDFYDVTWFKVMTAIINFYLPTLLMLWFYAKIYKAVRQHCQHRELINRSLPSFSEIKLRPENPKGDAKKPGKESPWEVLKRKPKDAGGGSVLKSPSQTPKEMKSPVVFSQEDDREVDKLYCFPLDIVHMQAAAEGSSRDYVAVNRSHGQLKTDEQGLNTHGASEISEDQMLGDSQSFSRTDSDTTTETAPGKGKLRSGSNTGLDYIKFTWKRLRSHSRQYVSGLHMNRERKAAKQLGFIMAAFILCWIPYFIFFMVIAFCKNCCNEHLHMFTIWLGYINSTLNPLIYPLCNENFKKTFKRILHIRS
T4 sequence (P14416 whole entry): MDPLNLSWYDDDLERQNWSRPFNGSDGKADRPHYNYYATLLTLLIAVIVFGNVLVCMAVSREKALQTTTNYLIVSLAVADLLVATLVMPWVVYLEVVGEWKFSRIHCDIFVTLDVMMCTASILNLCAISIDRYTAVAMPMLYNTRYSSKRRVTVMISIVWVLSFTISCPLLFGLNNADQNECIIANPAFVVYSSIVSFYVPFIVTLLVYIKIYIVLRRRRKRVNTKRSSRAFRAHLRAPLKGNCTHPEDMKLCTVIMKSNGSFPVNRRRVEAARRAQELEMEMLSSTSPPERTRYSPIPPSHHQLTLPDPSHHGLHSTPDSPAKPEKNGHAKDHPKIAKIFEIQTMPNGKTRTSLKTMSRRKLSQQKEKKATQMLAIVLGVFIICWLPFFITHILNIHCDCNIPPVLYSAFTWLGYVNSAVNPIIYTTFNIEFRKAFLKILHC

CN1CCc2c(c3cc(Cl)ccc3n2CCBr)C1 [CD88, 5-(2-bromoethyl)-8-chloro-2-methyl-2,3,4,5-tetrahydro-1H-pyrido[4,3-b]indole]
inhibition at 1 µM [1]: 104% | inhibition at 1 µM [2]: 84% | inhibition at 1 µM [3]: 98% | inhibition at 1 µM [4]: 27%

CN1CCc2c(c3cc(Cl)ccc3n2CCO)C1 [CD89, 2-(8-chloro-2-methyl-3,4-dihydro-1H-pyrido[4,3-b]indol-5(2H)-yl)ethanol]
inhibition at 1 µM ([1]; compound at 1 μM, CHO-K1 cells): 100% | inhibition at 1 µM ([2]; compound at 1 μM, CHO-K1 cells): 84% | inhibition at 1 µM ([3]; compound at 1 μM, CHO cells): 92% | inhibition at 1 µM ([4]; compound at 1 μM, CHO cells): 0%

Cc1ccc2c(c1)c1c(n2CCO)CCN(C)C1 [CD90, 2-(2,8-dimethyl-3,4-dihydro-1H-pyrido[4,3-b]indol-5(2H)-yl)ethanol]
inhibition at 1 µM ([1]; compound at 1 μM, CHO-K1 cells): 61% | inhibition at 1 µM ([2]; compound at 1 μM, CHO-K1 cells): 91% | inhibition at 1 µM ([3]; compound at 1 μM, CHO cells): 60% | inhibition at 1 µM ([4]; compound at 1 μM, CHO cells): -8%

Cc1ccc2c(c1)c1c(n2CCBr)CCN(C)C1 [CD91, 5-(2-bromoethyl)-2,8-dimethyl-2,3,4,5-tetrahydro-1H-pyrido[4,3-b]indole]
inhibition at 1 µM ([1]; compound at 1 μM, CHO-K1 cells): 102% | inhibition at 1 µM ([2]; compound at 1 μM, CHO-K1 cells): 98% | inhibition at 1 µM ([3]; compound at 1 μM, CHO cells): 98% | inhibition at 1 µM ([4]; compound at 1 μM, CHO cells): 15%

Cc1ccc2c(c1)c1c(n2CCC#N)CCN(C)C1 [CD92, 3-(2,8-dimethyl-3,4-dihydro-1H-pyrido[4,3-b]indol-5(2H)-yl)propanenitrile]
inhibition at 1 µM ([1]; compound at 1 μM, CHO-K1 cells): 94% | inhibition at 1 µM ([2]; compound at 1 μM, CHO-K1 cells): 61% | inhibition at 1 µM ([3]; compound at 1 μM, CHO cells): 99% | inhibition at 1 µM ([4]; compound at 1 μM, CHO cells): 3%

CN1CCc2c(c3cc(Cl)ccc3n2CCC#N)C1 [CD94, 3-(8-chloro-2-methyl-3,4-dihydro-1H-pyrido[4,3-b]indol-5(2H)-yl)propanenitrile]
inhibition at 1 µM ([1]; compound at 1 μM, CHO-K1 cells): 86% | inhibition at 1 µM ([2]; compound at 1 μM, CHO-K1 cells): 71% | inhibition at 1 µM ([3]; compound at 1 μM, CHO cells): 97% | inhibition at 1 µM ([4]; compound at 1 μM, CHO cells): 1%

CCOC(=O)Cn1c2c(c3cc(Cl)ccc31)CN(C)CC2 [Compound 10, ethyl 2-(8-chloro-1,2,3,4-tetrahydro-2-methylpyrido[4,3-b]indol-5-yl)acetate]
inhibition at 1 µM ([1]; compound at 1 μM, CHO-K1 cells): 71% | inhibition at 1 µM ([2]; compound at 1 μM, CHO-K1 cells): 92% | inhibition at 1 µM ([3]; compound at 1 μM, CHO cells): 99% | inhibition at 1 µM ([4]; compound at 1 μM, CHO cells): 12%

CC(C)OC(=O)Cn1c2c(c3cc(Cl)ccc31)CN(C)CC2 [Compound 11, isopropyl 2-(8-chloro-1,2,3,4-tetrahydro-2-methylpyrido[4,3-b]indol-5-yl)acetate]
inhibition at 1 µM ([1]; compound at 1 μM, CHO-K1 cells): 69% | inhibition at 1 µM ([2]; compound at 1 μM, CHO-K1 cells): 71% | inhibition at 1 µM ([3]; compound at 1 μM, CHO cells): 101% | inhibition at 1 µM ([4]; compound at 1 μM, CHO cells): 10%

CN1CCc2c(c3cc(Cl)ccc3n2CC(=O)OC(C)(C)C)C1 [Compound 12, tert-butyl 2-(8-chloro-1,2,3,4-tetrahydro-2-methylpyrido[4,3-b]indol-5-yl)acetate]
inhibition at 1 µM ([1]; compound at 1 μM, CHO-K1 cells): 45% | inhibition at 1 µM ([2]; compound at 1 μM, CHO-K1 cells): 83% | inhibition at 1 µM ([3]; compound at 1 μM, CHO cells): 101% | inhibition at 1 µM ([4]; compound at 1 μM, CHO cells): 23%
